Laboratory results from patent US20160152566A1, “TRICYCLIC PYRROLE COMPOUNDS, THEIR PREPARATION AND USE IN MEDICAMENTS” (INSTITUTO BIOMAR, S.A., priority 2013, published 2016).

Key:
[1] = tested on: BAE cells; experiment: MTT dye reduction cell growth assay, BAE cells; type: cell-based, Bovine; details: Bos taurus, 72 h, subconfluent BAE cells stimulated with 10% FBS, 3 days, read-out: IC50, growth of cultured BAE cells
Procedure: The 3-(4,5-dimethylthiazol-2-yl)-2,5 diphenyltetrazolium bromide (MIT; Sigma Chemical Co., St. Louis, Mo.) dye reduction assay in 96-well microplates was used. The assay is dependent on the reduction of MTT by mitochondrial dehydrogenases of viable cell to a blue formazan product, which can be measured spectrophotometrically.
3×10^3 BAE cells in a total volume of 100 μl of complete medium were incubated in each well with serial dilutions of the compound AD0157 obtained as explained above. After 3 days of incubation in the dark (37° C., 5% CO2 in a humid atmosphere), 10 μl of MTT (5 mg/ml in PBS) was added to each well and the plate was incubated for further 4 h (37° C.). The resulting formazan was dissolved in 150 μl of 0.04 N HCl-2 propanol and read at 550 nm. All determinations were carried out in triplicate, independent experiments. IC50 values were calculated as those concentrations of AD0157 yielding 50% cell survival, taking the values obtained for control as 100%.

[2] = tested on: endothelial and tumor cells; experiment: Hoechst staining of nuclear morphology; type: cell-based; details: 14 h treatment, endothelial and most types of tumor cells
Procedure: For Hoechst staining experiments, cells were seeded on 8-well chamber slides and grown to sub-confluence. After treatments for 14 h with the indicated concentrations of the compound in complete medium, cells were washed (PBS) and fixed (formalin solution, Sigma). Chamber slides were stained with Hoechst, mounted (DAKO Cytomation Fluorescent Mounting Medium, DAKO), and observed under a fluorescence microscope (Leica, TCS-NT).

[3] = tested on: BAE cells; experiment: Capillary tube formation on Matrigel; type: cell-based, Bovine; details: BAECs, 7 h
Procedure: (§1) Matrigel (50 μL of about 10.5 mg/mL) at 4° C. was used to coat each well of a 96-well plate and allowed to polymerise at 37° C. for a minimum of 30 min. 5×10^4 BAE cells were added with 200 μL DMEM. Finally, different amounts of the Compound AD0157 were added and incubated at 37° C. in a humidified chamber with 5% CO2. After incubation for 7 h, cultures were observed (40× and 100× magnifications) and photographed with a NIKON inverted microscope DIAPHOT-TMD (Nikon, Tokyo, Japan). Each concentration was tested in duplicate, and two different observers evaluated the inhibition of tube formation. To check the viability of endothelial cells after the treatment with the compounds in this assay, BAE cells were incubated in 96-well plate in the same conditions employed for the tube formation assay. After 7 h, cell viability in comparison to control untreated cells was determined by the addition of MTT essentially as described for the cell growth assay.

[4] = tested on: BAE cells; experiment: Viability (MTT) under tube formation conditions; type: cell-based, Bovine; details: 7 h, at the concentrations used to inhibit differentiation
Procedure: as §1

[5] = tested on: BAE cells; experiment: Tube formation with Cytodex beads on Matrigel; type: cell-based, Bovine; details: 48 h
Procedure: 3×10^4 BAE cells, were cultured with Cytodex beads, and allowed to adhere to them. The beads were added in 200 μL DMEM per well to a 96-well plate that has been previously prepared as follows: different amounts of the compound AD0157 were dispensed in a 96 well plate. Matrigel (50 μL) at 4° C. was used to coat each well of and allowed to polymerise at 37° C. for a minimum of 30 min. After polymerization, the beads carrying the endothelial cells were added to the wells. The plate was incubated at 37° C. in a humidified chamber with 5% CO2. After incubation for 48 h, cultures were observed using an optical microscope. Each concentration was tested in triplicate. Inhibition of tube formation was obtained at 9.3 uM.

[6] = tested on: HT1080 MMP-2; experiment: Gelatin zymography, HT1080 cells, MMP-2; type: cell-based, Human; details: 24 h
Procedure: BAE or HT1080 cells were grown in 6-well plates at 75% subconfluency in 6-well plates, medium was aspirated, cells were washed twice with phosphate-buffered saline (PBS) and each well received 1.5 ml of DMEM/0.1% BSA containing 200 KIU of Aprotinin/mL. Additionally, some wells received the indicated concentration of AD0157. After 24 h of incubation, conditioned media were collected. To obtain the cell extracts, the cells were washed twice with PBS and harvested by scrapping into 0.5 mL of 0.2% Triton X-100 in 0.1 M Tris/HCl containing 200 KIU aprotinin/mL. Media were centrifuged at 1000×g and 4° C. for 20 min, and used for zymography. Duplicates were used to determine cell number with a Coulter counter.
The gelatinolytic activity of MMP-2 delivered to the conditioned media and cell extracts were detected in gelatinograms. Samples were subjected to non-reducing SDS/PAGE as above but with gelatin (1 mg/mL) added to the 10% resolving gel. After electrophoresis, gels were washed twice with 50 mM Tris/HCl, pH 7.4, supplemented with 2% Triton X-100, and twice with 50 mM Tris/HCl, pH 7.4. […] Then, the gels were stained with Commassie blue R-250 and the bands of gelatinase activity could be detected as non-stained bands in a dark, stained background.
Quantitative analysis of zymograms and gelatinograms was performed with the Scion Image 4.0.3.2 Program.

[7] = tested on: HT1080 MMP-9; experiment: Gelatin zymography, HT1080 cells, MMP-9; type: cell-based, Human; details: 24 h
[8] = tested on: chick chorioallantoic membrane; experiment: Chick chorioallantoic membrane (CAM) angiogenesis assay; type: in vivo; details: 48 h
Procedure: Fertilised chick eggs were incubated horizontally at 38° C. in a humidified incubator, windowed by day 3 of incubation, and processed by day 8. The tested compound stock solution was added to a 1.2% solution of methylcellulose in water, and 10 μL drops of this solution were allowed to dry on a teflon-coated surface in a laminar flow hood. Then, the methylcellulose discs were implanted on the CAM, the eggs were sealed with adhesive tape and returned to the incubator for 48 h. Negative controls were always made with DMSO mixed with the methylcellulose. After the reincubation, the CAM was examined under a stereomicroscope. The assay was scored as positive when two independent observers reported a significant reduction of vessels in the treated area.

[9] = tested on: zebrafish intersegmental vessels; experiment: Zebrafish embryo intersegmental vessel assay (TGfli1:EGFPy1); type: in vivo; details: 24 h
Procedure: Zebrafish embryos were generated by natural pairwise mating and maintained in embryo water at 28.5° C. […] Embryos were manually dechorionated with forceps at 24 h post-fertilization (hpf), they were arrayed in 96-well plate, one embryo per well, and incubated with 100 μl of the indicated concentrations of the tested compounds at 28.5° C. for 24 h. DMSO was used as both carrier of drugs and control. After incubation, fish embryos were anesthetized with tricaine (0.02%), placed on slides and examined under an epifluorescence Nikon microscope equipped with DS-L1 Nikon digital camera. Phenotypic changes were evaluated by two different observers.

## C/C=C/C(=O)C1(O)CC2CC(C(=O)O)CC(C)C2C1C(=O)C1=C(/C=C/C)C(=O)C2(Cl)C3(CCCCCC)C(=O)NC(=O)C23C1=O (stereo not shown) [AD0157]
[1]
  IC50: 10.9 µM
[2]
  Concentration inducing chromatin condensation: above 5 μM
[3]
  Concentration giving complete inhibition of endothelial morphogenesis on Matrigel: 5 µM
  Concentration giving partial inhibition of endothelial morphogenesis on Matrigel: 1 µM
[4]
  Viability of endothelial cells: did not affect the viability
[5]
  Concentration giving inhibition of tube formation: 9.3 µM
[6]
  MMP-2 levels in HT1080 conditioned media and cellular extracts: no effect
[7]
  MMP-9 levels in HT1080 conditioned media and cellular extracts: no effect
[8]; 0.1 nmol/CAM
  % Inhibition: 20%
  Positive/total: 1/5
[8]; 0.5 nmol/CAM
  % Inhibition: 83%
  Positive/total: 5/6
[8]; 1 nmol/CAM
  % Inhibition: 100%
  Positive/total: 6/6
[8]; 5 nmol/CAM
  % Inhibition: 100%
  Positive/total: 6/6
[9]; 5 μM
  % Inhibition: 25%
  Positive/total: 5/20
[9]; 10 μM
  % Inhibition: 48%
  Positive/total: 12/25
[9]; 25 μM
  % Inhibition: 85%
  Positive/total: 17/20
